Measured values: patent US20210163532A1, “NOVEL M[…] PEPTIDES” (University of Florida Research Foundation, Incorporated, priority 2018, published 2021)
“Also recorded” adds a separate entry of the source. Where a SMILES comes first, the peptide text is derived from it. [ ]: non-standard residue; d: D form. dNMeA = CN[C@H](C)C(=O)O; Sar = CNCC(=O)O

Experiments:
[1] = In vitro metabolic stability in mouse liver microsomes
mice [2] = assay: Reinstatement of extinguished morphine conditioned place preference; settings: for stress-induced reinstatement of morphine CPP, peripheral pretreatment: 10 mg/kg i.p., nor-BNI once 24 h prior, cyclo[D-Phe-Pro-Sar-Phe] twice, 2.5 h prior to forced swimming daily
KOR = molecular target: T1, KOR (Mus musculus, UniProt P33534); assay: 55° C. warm-water tail-withdrawal assay, antagonism of U50,488-induced antinociception; type: in vivo; settings: for KOR antagonism: i.c.v. pretreatment, U50,488 10 mg/kg i.p.
T1 construct: from tissue; host or cells: living C57Bl/6 mice (whole animal; CNS and periphery)

C57Bl/6 mice = assay: Reinstatement of extinguished cocaine conditioned place preference
μ opioid receptor = molecular target: T2, μ opioid receptor (Mus musculus, UniProt P42866); assay: 55° C. warm-water tail-withdrawal assay, antagonism of morphine-mediated antinociception; type: in vivo; settings: 30 nmol i.c.v., 2.5 h pretreatment
T2 construct: mice are pretreated with the compound of the invention; from tissue; host or cells: living C57Bl/6 mice (whole animal)

mice [3] = assay: Reinstatement of extinguished ethanol conditioned place preference; type: in vivo, mouse; settings: 0.01 nmol i.c.v.
Excerpt: Similarly mice were place-conditioned using ethanol in a conditioned place-preference assay [Sperling, R. E., Gomes, S. M., Sypek, E. I., Carey, A. N. and McLaughlin, J. P., 2010. Endogenous kappa-opioid mediation of stress-induced potentiation of ethanol-conditioned place preference and self-administration. Psychopharmacology, 210, 199-209] with a biased conditioning paradigm (see McLaughlin, J. P., Ganno M. L., Eans, S. O., Mizrachi, E. and Paris, J. P., 2014. HIV-1 Tat protein exposure potentiates ethanol reward and reinstates extinguished ethanol-conditioned place preference. Current HIV Research, 12(6), 415-423). […] Mice were then pretreated once daily for two days with vehicle (50% DMSO in 0.9% saline, i.c.v.) or cyclo[D-Phe-Pro-Sar-Phe] (0.01 nmol, i.c.v.) and exposed to two days of forced swim stress or an additional cycle of ethanol place conditioning as described above.

δ opioid receptor = molecular target: T3, δ opioid receptor (Mus musculus, UniProt P32300); assay: 55° C. warm-water tail-withdrawal assay, antagonism of SNC80-mediated antinociception; type: in vivo; settings: 30 nmol i.c.v., 2.5 h pretreatment
T3 construct: from tissue; host or cells: living C57Bl/6 mice (whole animal)

KOR KO mice = settings: 200 nmol i.c.v.; β-FNA 5 mg/kg s.c. −24 h
MOR KO mice = assay: Opioid receptor selectivity of antinociception, tail-withdrawal assay in MOR KO mice; type: in vivo, mouse; settings: i.c.v.
[4] = liver microsomes, apparent t1/2 in mouse liver microsomes, mouse liver microsomes, 37° C.

T1 sequence (P33534 whole entry): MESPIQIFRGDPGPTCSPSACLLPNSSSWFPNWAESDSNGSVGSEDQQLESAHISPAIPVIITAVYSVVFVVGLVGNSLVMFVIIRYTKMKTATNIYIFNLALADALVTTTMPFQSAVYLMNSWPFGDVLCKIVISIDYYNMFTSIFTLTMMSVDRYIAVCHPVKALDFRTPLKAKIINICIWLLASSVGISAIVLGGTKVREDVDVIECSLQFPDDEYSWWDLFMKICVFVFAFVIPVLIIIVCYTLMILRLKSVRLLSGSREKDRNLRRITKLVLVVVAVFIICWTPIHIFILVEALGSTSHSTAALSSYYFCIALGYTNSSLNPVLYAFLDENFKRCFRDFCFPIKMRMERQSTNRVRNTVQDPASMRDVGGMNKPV
T3 sequence (P32300 whole entry): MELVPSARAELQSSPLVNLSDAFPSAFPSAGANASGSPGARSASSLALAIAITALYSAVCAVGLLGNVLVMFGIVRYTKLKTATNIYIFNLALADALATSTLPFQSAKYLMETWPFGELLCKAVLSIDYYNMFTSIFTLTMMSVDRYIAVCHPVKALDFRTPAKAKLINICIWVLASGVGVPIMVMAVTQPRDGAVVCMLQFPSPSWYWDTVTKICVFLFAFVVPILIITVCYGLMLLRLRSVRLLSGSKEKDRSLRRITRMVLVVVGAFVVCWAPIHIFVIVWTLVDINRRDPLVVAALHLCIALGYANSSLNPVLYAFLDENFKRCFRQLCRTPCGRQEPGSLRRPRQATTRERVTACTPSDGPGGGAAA
T2 sequence (P42866 whole entry): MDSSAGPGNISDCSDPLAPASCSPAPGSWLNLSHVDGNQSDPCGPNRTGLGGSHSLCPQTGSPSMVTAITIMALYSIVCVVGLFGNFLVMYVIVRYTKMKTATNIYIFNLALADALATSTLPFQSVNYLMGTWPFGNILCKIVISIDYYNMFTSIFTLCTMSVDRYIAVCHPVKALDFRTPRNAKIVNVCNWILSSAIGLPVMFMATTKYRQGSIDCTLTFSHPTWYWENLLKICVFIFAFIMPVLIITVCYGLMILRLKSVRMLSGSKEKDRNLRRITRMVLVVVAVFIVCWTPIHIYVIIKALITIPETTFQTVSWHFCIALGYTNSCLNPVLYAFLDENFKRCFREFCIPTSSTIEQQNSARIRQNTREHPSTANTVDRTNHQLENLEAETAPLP

## O=C1N[C@H](Cc2c[nH]c3ccccc23)C(=O)N[C@@H](Cc2ccccc2)C(=O)N2CCC[C@@H]2C(=O)N[C@H]1Cc1ccccc1 [[D-Trp]CJ-15,208, reference compound] (cyclo(F[dP]F[dW]))
[1]; microsomes
  half-life: 11 min

## Oc1ccc2c3c1O[C@H]1c4[nH]c5c(c4C[C@@]4(O)[C@@H](C2)N(CC2CC2)CC[C@]314)C[C@@]1(O)[C@H]2Cc3ccc(O)c4c3[C@@]1(CCN2CC1CC1)[C@H]5O4 [nor-BNI, nor-binaltorphimine, reference compound]
Mice [2]
  stress-induced reinstatement of morphine CPP, peripheral pretreatment: prevented stress-induced reinstatement

## CN1CC(=O)N[C@@H](Cc2ccccc2)C(=O)N[C@H](Cc2ccccc2)C(=O)N2CCC[C@H]2C1=O [cyclo[D-Phe-Pro-Sar-Phe]] (cyclo(F[dF]P[Sar]))
KOR; 2.5 h pretreatment, i.p.
  antagonism of U50,488-induced antinociception after i.p. administration: dose-dependent antagonism of U50,488-induced antinociception
KOR
  KOR antagonism: significantly antagonized KOR in a dose-dependent manner; also recorded: significant antagonism of only the KOR-selective agonist U50,488
KOR; i.c.v., 2.5 h pretreatment
  dose giving significant blockade of U50,488-induced antinociception (KOR antagonism): 1 pmol
KOR; p.o., 2.5 h after administration
  KOR antagonism after oral administration: demonstrated KOR antagonism
KOR; p.o., U50,488 i.c.v.
  antagonism of centrally administered (i.c.v.) U50,488 after oral administration: dose-dependently antagonized i.c.v. U50,488
Mice [2]; 0.01 nmol i.c.v.
  morphine-induced reinstatement of morphine-CPP, lower dose: did not have significant effects
  reinstatement of extinguished morphine CPP by compound alone: did not directly reinstate extinguished CPP
Mice [2]; 0.01 nmol i.c.v., −2.5 h
  stress-induced reinstatement of morphine CPP: prevented stress-induced reinstatement of morphine CPP
Mice [2]; 0.03 nmol i.c.v., 5 min pretreatment
  morphine-induced reinstatement of morphine-CPP: prevented morphine-induced reinstatement of morphine-CPP
Mice [2]
  stress-induced reinstatement of morphine CPP, peripheral pretreatment: prevented stress-induced reinstatement
C57Bl/6 mice; 0.01 nmol i.c.v., 5 min pretreatment
  cocaine-induced reinstatement of cocaine CPP: prevented cocaine-induced reinstatement
C57Bl/6 mice; 0.01 nmol i.c.v., no stress or cocaine
  reinstatement of cocaine CPP by compound alone: did not induce reinstatement
C57Bl/6 mice; 0.01 nmol i.c.v., −1.5 h
  stress-induced reinstatement of cocaine CPP: prevented stress-induced reinstatement of cocaine CPP
C57Bl/6 mice; 30 mg/kg and 60 mg/kg p.o., −2.5 h
  stress-induced reinstatement of cocaine CPP, oral: prevented stress-induced reinstatement of cocaine CPP
C57Bl/6 mice; p.o.
  stress- and cocaine-induced reinstatement of CPP after oral administration (FIG. 10B): prevented both stress- and cocaine-induced reinstatement of CPP after oral administration
[1]; [4]
  half-life: 60 min
μ opioid receptor
  morphine-mediated antinociception after pretreatment: 100±0%
Mice [3]
  stress- and ethanol-induced reinstatement of ethanol CPP (FIG. 11): prevented both stress- and ethanol-induced reinstatement of ethanol CPP
Mice [3]; −2 h
  stress-induced reinstatement of ethanol CPP: prevented stress-induced reinstatement of ethanol CPP
δ opioid receptor
  SNC80-mediated antinociception after pretreatment: 87.1±7.7%
KOR KO mice
  antinociception in KOR KO mice pretreated with MOR-selective antagonist β-FNA: completely inhibited
MOR KO mice; 1 nmol dose
  antinociception in opioid receptor KO mice: significantly impaired only in MOR KO mice
MOR KO mice; MOR KO mice
  antinociception ED50 (and 95% C.I.) in MOR KO mice: 58.2 (17.4-558) nmol

## C[C@@H]1C(=O)N[C@@H](Cc2ccccc2)C(=O)N[C@H](Cc2ccccc2)C(=O)N2CCC[C@H]2C(=O)N1C [cyclo[D-Phe-Pro-D-NMe-Ala-Phe]] (cyclo(F[dF]P[dNMeA]))
KOR
  KOR antagonism: did not exhibit KOR antagonist activity
[1]; [4]
  half-life: 12 min
